In brackets after ≈: the same amount, converted by molar mass.
Tests used:
Klebsiella pneumoniae [1] = assay: Antibacterial activity against Klebsiella pneumoniae MTCC 109 assessed as zone of inhibition at 1 mg/disc after 24 hrs by disc diffusion method; assay type: functional
Proteus vulgaris [2] = assay: Antibacterial activity against Proteus vulgaris MTCC 1771 assessed as zone of inhibition at 1 mg/disc after 24 hrs by disc diffusion method; assay type: functional
Micrococcus luteus [3] = assay: Antibacterial activity against Micrococcus luteus MTCC 106 assessed as zone of inhibition at 1 mg/disc after 24 hrs by disc diffusion method; assay type: functional
Klebsiella aerogenes [4] = assay: Antibacterial activity against Enterobacter aerogenes MTCC 111 assessed as zone of inhibition at 1 mg/disc after 24 hrs by disc diffusion method; assay type: functional
[5] = test system: Staphylococcus epidermidis; assay: Antibacterial activity against Staphylococcus epidermidis MTCC 3615 assessed as zone of inhibition at 1 mg/disc after 24 hrs by disc diffusion method; assay type: functional
Staphylococcus aureus [6] = assay: Antibacterial activity against Staphylococcus aureus MTCC 96 assessed as zone of inhibition at 1 mg/disc after 24 hrs by disc diffusion method; assay type: functional
Staphylococcus aureus [7] = assay: Antibacterial activity against methicillin-resistant Staphylococcus aureus assessed as zone of inhibition at 1 mg/disc after 24 hrs by disc diffusion method; assay type: functional
Malassezia pachydermatis [8] = assay: Antifungal activity against Malassezia pachydermatis assessed as zone of inhibition at 1 mg/disc after 48 hrs by disc diffusion method; assay type: functional
Klebsiella pneumoniae [9] = assay: Antibacterial activity against Klebsiella pneumoniae MTCC 109 assessed as inhibition of visual growth after 24 hrs; assay type: functional; settings: MTCC 109, 24 h
Proteus vulgaris [10] = assay: Antibacterial activity against Proteus vulgaris MTCC 1771 assessed as inhibition of visual growth after 24 hrs; assay type: functional; settings: MTCC 1771, 24 h
Micrococcus luteus [11] = assay: Antibacterial activity against Micrococcus luteus MTCC 106 assessed as inhibition of visual growth after 24 hrs; assay type: functional; settings: MTCC 106, 24 h
Klebsiella aerogenes [12] = assay: Antibacterial activity against Enterobacter aerogenes MTCC 111 assessed as inhibition of visual growth after 24 hrs; assay type: functional; settings: MTCC 111, 24 h
[13] = test system: Staphylococcus epidermidis; assay: Antibacterial activity against Staphylococcus epidermidis MTCC 3615 assessed as inhibition of visual growth after 24 hrs; assay type: functional; settings: MTCC 3615, 24 h
Staphylococcus aureus [14] = assay: Antibacterial activity against Staphylococcus aureus MTCC 96 assessed as inhibition of visual growth after 24 hrs; assay type: functional; settings: MTCC 96, 24 h
Staphylococcus aureus [15] = assay: Antibacterial activity against methicillin-resistant Staphylococcus aureus assessed as inhibition of visual growth after 24 hrs; assay type: functional
Malassezia pachydermatis [16] = assay: Antifungal activity against Malassezia pachydermatis assessed as inhibition of visual growth after 48 to 72 hrs; assay type: functional
Candida albicans [17] = assay: Antifungal activity against Candida albicans MTCC 227 assessed as zone of inhibition at 1 mg/disc after 48 hrs by disc diffusion method; assay type: functional
Candida albicans [18] = assay: Antifungal activity against Candida albicans MTCC 227 assessed as inhibition of visual growth after 48 to 72 hrs; assay type: functional
Salmonella typhimurium [19] = assay: Antibacterial activity against Salmonella typhimurium MTCC 1251 assessed as zone of inhibition at 1 mg/disc after 24 hrs by disc diffusion method; assay type: functional, Salmonella enterica subsp. enterica serovar Typhimurium
Shigella flexneri = assay: Antibacterial activity against Shigella flexneri MTCC 1457 assessed as zone of inhibition at 1 mg/disc after 24 hrs by disc diffusion method; assay type: functional
Salmonella typhimurium [20] = assay: Antibacterial activity against Salmonella typhimurium MTCC 1251 assessed as inhibition of visual growth after 24 hrs; assay type: functional, Salmonella enterica subsp. enterica serovar Typhimurium; settings: Salmonella enterica, MTCC 1251, 24 h

Row | Compound | inhibition zone (IZ) (Klebsiella pneumoniae [1]) [mm] | inhibition zone (IZ) (Proteus vulgaris [2]) [mm] | inhibition zone (IZ) (Micrococcus luteus [3]) [mm] | inhibition zone (IZ) (Klebsiella aerogenes [4]) [mm] | inhibition zone (IZ) [5] [mm] | inhibition zone (IZ) (Staphylococcus aureus [6]) [mm] | inhibition zone (IZ) (Staphylococcus aureus [7]) [mm] | inhibition zone (IZ) (Malassezia pachydermatis [8]) [mm] | MIC (Klebsiella pneumoniae [9]) [µg/mL] | MIC (Proteus vulgaris [10]) [µg/mL] | MIC (Micrococcus luteus [11]) [µg/mL] | MIC (Klebsiella aerogenes [12]) [µg/mL] | MIC [13] [µg/mL] | MIC (Staphylococcus aureus [14]) [µg/mL] | MIC (Staphylococcus aureus [15]) [µg/mL] | MIC (Malassezia pachydermatis [16]) [µg/mL] | inhibition zone (IZ) (Candida albicans [17]) [mm] | MIC (Candida albicans [18]) [µg/mL] | other results
1 | CN1C[C@](C#N)(C(=O)c2c[nH]c3ccccc23)[C@@H](c2cn(-c3ccccc3)nc2-c2ccccc2)[C@@]12C(=O)Nc1ccccc12 | 9 | 8 | 10 | 9 | 8 | 9 | 8 | 9 | 500 (≈ 849 µM) | 500 (≈ 849 µM) | 250 (≈ 425 µM) | 500 (≈ 849 µM) | 500 (≈ 849 µM) | 500 (≈ 849 µM) | 500 (≈ 849 µM) | 500 (≈ 849 µM) | – | – | –
2 | C=CCN1C(=O)[C@]2(c3ccccc31)[C@H](c1cn(-c3ccccc3)nc1-c1ccccc1)[C@@](C#N)(C(=O)c1c[nH]c3ccccc13)CN2C | 10 | 8 | 12 | 11 | 10 | 11 | 8 | 11 | 125 (≈ 199 µM) | 500 (≈ 795 µM) | 250 (≈ 398 µM) | 250 (≈ 398 µM) | 250 (≈ 398 µM) | 250 (≈ 398 µM) | 500 (≈ 795 µM) | 250 (≈ 398 µM) | – | – | –
3 | CN1C[C@](C#N)(C(=O)c2c[nH]c3ccccc23)[C@@H](c2cn(-c3ccccc3)nc2-c2ccccc2)[C@@]12C(=O)N(Cc1ccccc1)c1ccccc12 | 11 | 10 | 9 | 10 | 8 | 9 | 8 | 9 | 250 (≈ 368 µM) | 250 (≈ 368 µM) | 500 (≈ 737 µM) | 500 (≈ 737 µM) | 500 (≈ 737 µM) | 500 (≈ 737 µM) | 500 (≈ 737 µM) | 500 (≈ 737 µM) | 8 | 500 (≈ 737 µM) | –
4 | CCCCN1C(=O)[C@]2(c3ccccc31)[C@H](c1cn(-c3ccccc3)nc1-c1ccccc1)[C@@](C#N)(C(=O)c1c[nH]c3ccccc13)CN2C | 9 | 8 | 11 | 13 | 9 | – | – | 11 | 500 (≈ 775 µM) | 500 (≈ 775 µM) | 250 (≈ 388 µM) | 125 (≈ 194 µM) | 500 (≈ 775 µM) | – | – | 250 (≈ 388 µM) | 9 | 500 (≈ 775 µM) | –
5 | CN1C(=O)[C@]2(c3ccccc31)[C@H](c1cn(-c3ccccc3)nc1-c1ccccc1)[C@@](C#N)(C(=O)c1c[nH]c3ccccc13)CN2C | 8 | 10 | 10 | 8 | 8 | – | – | 10 | 500 (≈ 830 µM) | 250 (≈ 415 µM) | 500 (≈ 830 µM) | 500 (≈ 830 µM) | 500 (≈ 830 µM) | – | – | 500 (≈ 830 µM) | 11 | 250 (≈ 415 µM) | –
6 | C#CCN1C(=O)[C@]2(c3ccccc31)[C@H](c1cn(-c3ccccc3)nc1-c1ccccc1)[C@@](C#N)(C(=O)c1c[nH]c3ccccc13)CN2C | 10 | 8 | 8 | 10 | 10 | 9 | 8 | 8 | 250 (≈ 399 µM) | 500 (≈ 798 µM) | 500 (≈ 798 µM) | 250 (≈ 399 µM) | 250 (≈ 399 µM) | 500 (≈ 798 µM) | 500 (≈ 798 µM) | 500 (≈ 798 µM) | 10 | 125 (≈ 199 µM) | –
7 | CN1C[C@](C#N)(C(=O)c2c[nH]c3ccccc23)[C@@H](c2cn(-c3ccccc3)nc2-c2ccccc2)[C@@]12C(=O)Nc1ccc(Cl)cc12 | 9 | 11 | 10 | 9 | 8 | 11 | 12 | 9 | – | – | – | – | – | – | – | – | 11 | – | inhibition zone (IZ) (Salmonella typhimurium [19]): 8 mm
8 | N#C[C@]1(C(=O)c2c[nH]c3ccccc23)C2CCCN2[C@]2(C(=O)N(Cc3ccccc3)c3ccccc32)[C@@H]1c1cn(-c2ccccc2)nc1-c1ccccc1 (stereo partly drawn) | 11 | 10 | 9 | 8 | 15 | 13 | 8 | – | – | – | – | – | – | – | – | – | 8 | – | inhibition zone (IZ) (Salmonella typhimurium [19]): 14 mm
9 | N#C[C@]1(C(=O)c2c[nH]c3ccccc23)C2CCCN2[C@]2(C(=O)Nc3ccc(Cl)cc32)[C@@H]1c1cn(-c2ccccc2)nc1-c1ccccc1 (stereo partly drawn) | 9 | 10 | 9 | 8 | 8 | 9 | 8 | 11 | – | – | – | – | – | – | – | – | 13 | – | inhibition zone (IZ) (Salmonella typhimurium [19]): 8 mm; inhibition zone (IZ) (Shigella flexneri): 10 mm
10 | CN1C(=O)[C@]2(c3ccccc31)[C@H](c1cn(-c3ccccc3)nc1-c1ccccc1)[C@@](C#N)(C(=O)c1c[nH]c3ccccc13)C1CSCN12 (stereo partly drawn) | – | – | – | – | – | – | – | – | 500 (≈ 773 µM) | 500 (≈ 773 µM) | 250 (≈ 387 µM) | 500 (≈ 773 µM) | 125 (≈ 193 µM) | 500 (≈ 773 µM) | – | – | – | – | MIC (Salmonella typhimurium [20]): 500 µg/mL (≈ 773 µM)
11 | C#CCN1C(=O)[C@]2(c3ccccc31)[C@H](c1cn(-c3ccccc3)nc1-c1ccccc1)[C@@](C#N)(C(=O)c1c[nH]c3ccccc13)C1CSCN12 (stereo partly drawn) | – | 9 | 8 | – | – | – | 13 | – | – | – | – | – | – | – | – | – | – | – | inhibition zone (IZ) (Shigella flexneri): 14 mm
12 | N#C[C@]1(C(=O)c2c[nH]c3ccccc23)C2CSCN2[C@]2(C(=O)Nc3ccc([N+](=O)[O-])cc32)[C@@H]1c1cn(-c2ccccc2)nc1-c1ccccc1 (stereo partly drawn) | – | 8 | – | – | – | – | – | – | – | – | – | – | – | – | – | – | – | – | –

Reference: ChEMBL document CHEMBL3351686, “Facile and diastereoselective synthesis of 3,2'-spiropyrrolidine-oxindoles derivatives, their molecular docking and antiproliferative activities” (2015)
